Assay results reported in the NIST ThermoML archive (doi:10.1021/je025582+).
± gives the expanded uncertainty stated by the source.

Settings: Gas

FC(C(F)(F)F)C(F)(F)F [1,1,1,2,3,3,3-heptafluoropropane]
Settings | mass density [kg/m3]
318.15 K, 122.2 kPa | 8.07 ± 0.1
318.15 K, 167.7 kPa | 11.21 ± 0.11
318.15 K, 230.1 kPa | 15.57 ± 0.11
318.15 K, 312 kPa | 21.61 ± 0.12
318.15 K, 421 kPa | 30.01 ± 0.13
318.15 K, 561.3 kPa | 41.67 ± 0.15
318.15 K, 734.2 kPa | 57.85 ± 0.17
321.15 K, 123.2 kPa | 8.06 ± 0.1
321.15 K, 169.3 kPa | 11.2 ± 0.1
321.15 K, 232.2 kPa | 15.54 ± 0.11
321.15 K, 315.4 kPa | 21.58 ± 0.12
321.15 K, 425.5 kPa | 29.97 ± 0.13
321.15 K, 568 kPa | 41.61 ± 0.15
321.15 K, 744.1 kPa | 57.77 ± 0.16
324.15 K, 124.4 kPa | 8.05 ± 0.1
324.15 K, 170.9 kPa | 11.18 ± 0.1
324.15 K, 234.2 kPa | 15.53 ± 0.11
324.15 K, 318.6 kPa | 21.56 ± 0.12
324.15 K, 430.2 kPa | 29.93 ± 0.13
324.15 K, 574.9 kPa | 41.56 ± 0.14
324.15 K, 754 kPa | 57.71 ± 0.16
327.15 K, 125.7 kPa | 8.04 ± 0.1
327.15 K, 172.6 kPa | 11.17 ± 0.1
327.15 K, 236.2 kPa | 15.51 ± 0.11
327.15 K, 321.9 kPa | 21.53 ± 0.11
327.15 K, 434.8 kPa | 29.9 ± 0.12
327.15 K, 581.5 kPa | 41.52 ± 0.14
327.15 K, 763.9 kPa | 57.65 ± 0.17
327.15 K, 982.1 kPa | 80.04 ± 0.2
330.15 K, 126.8 kPa | 8.04 ± 0.1
330.15 K, 132 kPa | 8.39 ± 0.1
330.15 K, 174.3 kPa | 11.16 ± 0.1
330.15 K, 181.5 kPa | 11.64 ± 0.1
330.15 K, 238.5 kPa | 15.5 ± 0.11
330.15 K, 248.3 kPa | 16.17 ± 0.11
330.15 K, 325.2 kPa | 21.51 ± 0.11
330.15 K, 338.6 kPa | 22.45 ± 0.11
330.15 K, 439.5 kPa | 29.87 ± 0.12
330.15 K, 457.7 kPa | 31.17 ± 0.12
330.15 K, 588.3 kPa | 41.48 ± 0.13
330.15 K, 611.2 kPa | 43.28 ± 0.14
330.15 K, 774.3 kPa | 57.59 ± 0.15
330.15 K, 803.6 kPa | 60.09 ± 0.16
330.15 K, 998.1 kPa | 79.97 ± 0.2
333.15 K, 128 kPa | 8.03 ± 0.1
333.15 K, 175.9 kPa | 11.15 ± 0.1
333.15 K, 240.7 kPa | 15.48 ± 0.1
333.15 K, 328.6 kPa | 21.5 ± 0.11
333.15 K, 444.3 kPa | 29.85 ± 0.12
333.15 K, 595.3 kPa | 41.45 ± 0.14
333.15 K, 784.6 kPa | 57.55 ± 0.16
333.15 K, 1013.2 kPa | 79.91 ± 0.19
336.15 K, 129 kPa | 8.03 ± 0.1
336.15 K, 177.7 kPa | 11.14 ± 0.1
336.15 K, 243.4 kPa | 15.47 ± 0.1
336.15 K, 331.9 kPa | 21.49 ± 0.11
336.15 K, 449.1 kPa | 29.83 ± 0.12
336.15 K, 602.5 kPa | 41.42 ± 0.14
336.15 K, 795.1 kPa | 57.52 ± 0.16
336.15 K, 1029.1 kPa | 79.86 ± 0.19
339.15 K, 130.1 kPa | 8.02 ± 0.1
339.15 K, 179.3 kPa | 11.14 ± 0.1
339.15 K, 245.7 kPa | 15.47 ± 0.1
339.15 K, 334.9 kPa | 21.48 ± 0.11
339.15 K, 454.4 kPa | 29.82 ± 0.12
339.15 K, 609.6 kPa | 41.4 ± 0.13
339.15 K, 804.6 kPa | 57.49 ± 0.16
339.15 K, 1044.6 kPa | 79.83 ± 0.2
339.15 K, 1310.5 kPa | 110.84 ± 0.24
342.15 K, 131.3 kPa | 8.02 ± 0.09
342.15 K, 181.1 kPa | 11.14 ± 0.1
342.15 K, 248.2 kPa | 15.46 ± 0.1
342.15 K, 338.6 kPa | 21.47 ± 0.11
342.15 K, 459.3 kPa | 29.81 ± 0.12
342.15 K, 616.9 kPa | 41.39 ± 0.13
342.15 K, 815 kPa | 57.47 ± 0.16
342.15 K, 1059.6 kPa | 79.8 ± 0.2
342.15 K, 1333.9 kPa | 110.8 ± 0.24
345.15 K, 132.5 kPa | 8.02 ± 0.09
345.15 K, 182.4 kPa | 11.13 ± 0.1
345.15 K, 250.2 kPa | 15.46 ± 0.1
345.15 K, 341.9 kPa | 21.47 ± 0.11
345.15 K, 464 kPa | 29.81 ± 0.12
345.15 K, 624.2 kPa | 41.39 ± 0.13
345.15 K, 826.2 kPa | 57.46 ± 0.15
345.15 K, 1074.6 kPa | 79.79 ± 0.19
345.15 K, 1358 kPa | 110.79 ± 0.23
380.15 K, 269.4 kPa | 14.93 ± 0.09
380.15 K, 369.5 kPa | 20.73 ± 0.09
380.15 K, 503.4 kPa | 28.78 ± 0.1
380.15 K, 683 kPa | 39.96 ± 0.11
380.15 K, 918.3 kPa | 55.48 ± 0.13
380.15 K, 1215.9 kPa | 77.04 ± 0.16
380.15 K, 1582.9 kPa | 106.97 ± 0.21
380.15 K, 2004.6 kPa | 148.52 ± 0.28
380.15 K, 2446.1 kPa | 206.22 ± 0.4
380.15 K, 2832.9 kPa | 286.34 ± 0.53
